Measured values taken from article PMC7614687, “Modulation of the substrate specificity of the kinase PDK1 by distinct conformations of the full-length protein*” (Science signaling, 2023).
Values joined by “and” are separate entries in the source; they are usually repeats but may differ in a detail not shown here. Identical values can stand only once. “Also recorded” adds a separate entry of the source. Like-named read-outs stand apart in the source and are kept apart here.

How the values were obtained:
[1] = biological target: T1, His-PDK1_1-556 and GST-PDK1_360-556 (Homo sapiens, UniProt O15530); assay: AlphaScreen PDK1 dimerization assay His-PDK1_1-556 / GST-PDK1_360-556; type: binding
T1 construct: made in house; host or cells: Sf9 insect cells (His-PDK1_1-556); HEK293 cells (GST-PDK1_360-556)
T1 sequence (O15530 1-556): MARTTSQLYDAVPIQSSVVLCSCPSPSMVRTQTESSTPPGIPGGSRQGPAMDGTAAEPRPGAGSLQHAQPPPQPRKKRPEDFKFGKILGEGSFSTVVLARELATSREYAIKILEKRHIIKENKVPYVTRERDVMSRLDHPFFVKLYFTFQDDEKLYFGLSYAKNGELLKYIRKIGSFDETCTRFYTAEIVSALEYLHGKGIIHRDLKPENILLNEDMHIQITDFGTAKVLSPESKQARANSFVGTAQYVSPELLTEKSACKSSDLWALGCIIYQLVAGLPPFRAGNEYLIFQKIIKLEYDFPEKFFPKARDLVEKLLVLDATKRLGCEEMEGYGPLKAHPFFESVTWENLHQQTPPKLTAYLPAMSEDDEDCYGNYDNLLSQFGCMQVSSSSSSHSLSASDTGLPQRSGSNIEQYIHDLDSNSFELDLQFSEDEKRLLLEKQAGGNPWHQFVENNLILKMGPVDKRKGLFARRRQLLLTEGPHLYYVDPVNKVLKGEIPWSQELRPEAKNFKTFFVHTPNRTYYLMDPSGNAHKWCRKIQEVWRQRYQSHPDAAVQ
Experimental: (§1) The AlphaScreen® assay was performed following the general guidelines from the manufacturer (Perkin Elmer) ([29]). In short, the assay was performed in a final volume of 25 μl in white 384-well microtiter plates (Greiner) in a standard buffer containing 50 mM Tris-HCl (pH 7.4), 100 mM NaCl, 2 mM DTT, 0.01% (v/v) Tween-20 and 0.1% (w/v) BSA, with the addition of 5 μl of beads (anti-GST coated acceptor beads and streptavidin-coated donor beads; nickel chelate-coated acceptor beads and streptavidin-coated donor beads; or nickel chelate-coated acceptor beads and GSH-coated donor beads, 20 μg/ml final concentrations for each bead type). AlphaScreen assays for His-tagged proteins and GST-fusion proteins were performed using nickel chelate-coated acceptor beads and GSH-coated donor beads; alphascreen assays for His-tagged proteins and biotinylated molecules were performed using nickel chelate-coated acceptor beads and streptavidin-coated donor beads; alphascreen assays for GST-fusion proteins and biotinylated molecules were performed using anti-GST coated acceptor beads and streptavidin-coated donor beads (Perkin Elmer).
(§2) The conditions for each AlphaScreen assay were identified in cross-titration experiments for each interaction to choose the ideal pair of concentrations within the linear range of the interactions. […] His-PDK1 and GST-fusion protein in the presence or absence of the different compounds were incubated in the dark for 60 min at room temperature and the emission of light from the acceptor beads was measured in an EnVision reader (Perkin Elmer) or Spark plate reader (Tecan). […]

PDK1_1-556 = biological target: T2, PDK1_1-556 (Homo sapiens, UniProt O15530); assay: Differential scanning fluorimetry, thermal stability of PDK1_1-556; type: binding; conditions: PDK1 1 μM
T2 construct: effect of HYG8 on the thermal stability (ΔTm) of PDK1_1-556 (H) and PDK1_50-359 (I); His (N); made in house; host or cells: Sf9 insect cells (baculovirus)
T2 sequence (O15530 1-556): T1 sequence (O15530 1-556)
Experimental: The thermal stability of PDK1 was assessed by monitoring the unfolding of PDK1 by the increase in the fluorescence of SYPRO Orange (Invitrogen) using a real-time PCR device (StepOnePlus, Applied Biosystems and BioRad CFX96) following a previously described protocol ([70]). The reactions were performed in a final volume of 10 μl in white 96-well PCR microtiter plates (Greiner) and contained 1 μM PDK1, 10 mM HEPES (pH 7.5), 150 mM NaCl, 1/1000 SYPRO Orange and 1 mM dithiothreitol. For valsartan, the assay buffer was modified to exclude NaCl. PIFtide or compounds (at a final DMSO concentration of 1%) were added to this reaction mixture. The temperature gradient was performed in steps of 0.3 °C in the range from 25 to 70 °C. To calculate the Tm values, data were exported to GraphPad Prism and curves fitted to a Boltzmann sigmoidal equation with an acceptable confidence interval of 95%. Statistical analysis was performed with Infostat software (http://www.infostat.com.ar) and GraphPad Prism by first verifying a normal distribution of pooled residuals (Shapiro-Wilks test) and homogeneity of variance (F test), and then performing a one-way ANOVA followed by the post hoc comparisons test indicated in each figure legend.

PDK1 = biological target: T3, PDK1 (Homo sapiens, UniProt O15530); assay: Thermo Fisher "PDK1 Direct" assay (peptide Ser/Thr 07, FRET readout); type: biochemical; conditions: for times less potent inhibitors than HYG7, HYG8 and HYG14: PDK1 Direct assay IC50 comparison
T3 sequence (O15530 1-556): T1 sequence (O15530 1-556)

GST-PDK1_1-556 [2] = biological target: T4, GST-PDK1_1-556 (Homo sapiens, UniProt O15530); assay: AlphaScreen GST-PDK1_1-556 / biotin-PIFtide interaction; type: binding
T4 construct: made in house; host or cells: HEK293 cells (transient transfection of pEBG2T); peptide synthesized by Pepscan
T4 sequence (O15530 1-556): T1 sequence (O15530 1-556)
Experimental: as §1
The interaction between GST-PDK1_1-556 and biotin-PIFtide was performed as described previously ([29], [32]) in the standard buffer, but the bead concentration was lowered to 15 μg/ml.

GST-PDK1_360-556 = biological target: T5, GST-PDK1_360-556 (Homo sapiens, UniProt O15530); assay: AlphaScreen biotin-PIP3 / GST-PDK1_360-556 (linker-PH domain) displacement; type: binding; conditions: PIP3 20 nM, GST-PDK1 3 nM
T5 construct: GST-PDK1_360-556 (GST-PDK1-Linker-PH) was cloned into the BamHI-KpnI sites in pEBG2T plasmid; made in house; host or cells: HEK293 cells (transient transfection of pEBG2T)
T5 sequence (O15530 360-556): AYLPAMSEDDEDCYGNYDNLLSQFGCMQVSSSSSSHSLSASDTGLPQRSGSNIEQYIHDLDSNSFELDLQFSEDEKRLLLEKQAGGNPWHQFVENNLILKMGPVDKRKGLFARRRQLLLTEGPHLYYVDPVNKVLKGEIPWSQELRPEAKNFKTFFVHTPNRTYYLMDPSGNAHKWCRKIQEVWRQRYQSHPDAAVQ
Experimental: The AlphaScreen® assay was performed following the general guidelines from the manufacturer (Perkin Elmer) ([29]). In short, the assay was performed in a final volume of 25 μl in white 384-well microtiter plates (Greiner) in a standard buffer containing 50 mM Tris-HCl (pH 7.4), 100 mM NaCl, 2 mM DTT, 0.01% (v/v) Tween-20 and 0.1% (w/v) BSA, with the addition of 5 μl of beads (anti-GST coated acceptor beads and streptavidin-coated donor beads; nickel chelate-coated acceptor beads and streptavidin-coated donor beads; or nickel chelate-coated acceptor beads and GSH-coated donor beads, 20 μg/ml final concentrations for each bead type). […]
as §2
(§3) Biotin-PIP3 interactions with GST-PDK1_1-556 or GST-PDK1_360-556 were assessed in the standard buffer. […]

GST-PDK1_1-556 [3] = biological target: T4, GST-PDK1_1-556; assay: AlphaScreen biotin-PIP3 / GST-PDK1_1-556 displacement; type: binding; conditions: PIP3 20 nM, GST-PDK1 3 nM
Experimental: as §1
The conditions for each AlphaScreen assay were identified in cross-titration experiments for each interaction to choose the ideal pair of concentrations within the linear range of the interactions. As required, the standard conditions were modified to use less material, to increase binding of the interacting molecules, to lower background signal, and so on. His-PDK1 and GST-fusion protein in the presence or absence of the different compounds were incubated in the dark for 60 min at room temperature and the emission of light from the acceptor beads was measured in an EnVision reader (Perkin Elmer) or Spark plate reader (Tecan). AlphaScreen assays were performed at least twice, although most experiments were performed multiple times by different researchers with different batches of purified proteins with similar results.
as §3

[4] = absence of PIFtide, read-out: IC50 (nM), displacement of His-PDK1_1-556 interaction with GST-PDK1_360-556
[5] = with PIFtide, read-out: IC50 (nM), displacement of His-PDK1_1-556 interaction with GST-PDK1_360-556 with PIFtide
[6] = replicate point 1, read-out: % Inhibition Point 1
[7] = replicate point 2, read-out: % Inhibition Point 2
[8] = single point, N=2, read-out: Inhibition at 1 μM (%)

Row | IC50 [1, 4] | IC50 [1, 5] | Tm (°C), temperature stabilization of PDK1_1-556 (PDK1_1-556; compound 1 µM) | Tm (°C), temperature stabilization of PDK1_1-556 (PDK1_1-556; compound 20 µM) | inhibition at 1 µM (PDK1; [6]) | inhibition at 1 µM (PDK1; [7]) | inhibition at 1 µM (PDK1; [8]) | Hill slope, PDK1 direct (PDK1; 10-point titration) | IC50 (PDK1; 10-point titration) | Compound | effect on PDK1 dimer formation [1] | other results
1 | – | – | – | – | – | – | – | – | – | REPRILSEEEQEMFRDFDYIADWS [PIFtide, peptide derived from the PRK2 HM (a PDK1 substrate)] | no effect on dimer formation | –
2 | 27 nM | 17.9 nM | 7.8 °C | 9.9 °C | 53% | 64% | 59% | 1.11 | 449 nM | CC(=O)O[C@H]1[C@@H](OP(=O)(O)O)[C@H](OP(=O)(O)O)[C@@H](OP(=O)(O)O)[C@H](OP(=O)(O)O)[C@H]1OP(=O)(O)O [HYG6, 2-O-acetyl-IP5] | – | times less potent inhibitors than HYG7, HYG8 and HYG14 (PDK1): 15 to 36 times
3 | – | – | – | – | – | – | – | – | – | O=C(CC(c1ccccc1)C(C(=O)O)C(=O)O)c1ccc(C(F)(F)F)cc1 (stereo not shown) [PS210] | None of these compounds affected the dimerization | –
4 | 22.6 nM | 22.7 nM | 12.6 °C and 11-15 °C | 14.5 °C and 13-16 °C | 101% | 99% | 100% | 1.39 | 29 nM | CCCC(=O)O[C@H]1[C@@H](OP(=O)(O)O)[C@H](OP(=O)(O)O)[C@@H](OP(=O)(O)O)[C@H](OP(=O)(O)O)[C@H]1OP(=O)(O)O [HYG7, 2-O-butyryl-IP5] | – | –
5 | – | – | – | – | – | – | – | – | – | CN[C@@H]1C[C@H]2O[C@@](C)([C@@H]1OC)n1c3ccccc3c3c4c(c5c6ccccc6n2c5c31)C(=O)N[C@H]4O [UCN01] | do not affect the formation of PDK1 dimers | –
6 | 67 nM | 59.4 nM | 5.3 °C | 11.9 °C | 63% | 69% | 66% | 1.33 | 577 nM | O=P(O)(O)O[C@@H]1[C@@H](OP(=O)(O)O)[C@H](OP(=O)(O)O)[C@H](O)[C@H](OP(=O)(O)O)[C@H]1OP(=O)(O)O [IP5, inositol-1,3,4,5,6-pentaphosphate, reference compound] | – | times less potent inhibitors than HYG7, HYG8 and HYG14 (PDK1): 15 to 36 times
7 | – | – | – | – | – | – | – | – | – | O=P(O)(O)OC1[C@H](O)[C@H](OP(=O)(O)O)C(OP(=O)(O)O)[C@H](OP(=O)(O)O)[C@H]1O (stereo partly shown) [IP4, inositol-1,3,4,5-tetrakisphosphate, reference compound] | – | effect on PDK1-PIFtide interaction (GST-PDK1_1-556 [2]): did not enhance binding to PIFtide
8 | – | – | – | – | – | – | – | – | – | CC(C)C(NCc1ccc(-c2ccccc2-c2nnn[nH]2)cc1)C(=O)O (stereo not shown) [Des(oxopentyl) valsartan, des(oxopentyl)valsartan, reference compound] | did not disrupt PDK1 dimers | –
9 | 124 nM | 140 nM | 4.7 °C | 7.3 °C | -8% | -10% | – | – | – | O=P(O)(O)O[C@@H]1[C@@H](OP(=O)(O)O)[C@H](OP(=O)(O)O)[C@@H](O)[C@H](OP(=O)(O)O)[C@H]1OP(=O)(O)O [scyllo-IP5, reference compound] | – | Inhibition at 1 μM (%) (PDK1; single point, N=2): -9%; Inhibition at 1 μM (%) (PDK1; single point, N=2, listed as Scyllo-IP5, 1 µM): ≤ 10%
10 | – | – | – | – | – | – | – | – | – | Nc1ncnc2[nH]cnc12 [adenine] | do not affect the formation of PDK1 dimers | –
11 | – | – | – | – | – | – | – | – | – | CNc1nc(-c2ccc3c(N)n[nH]c3c2)cc(N2C[C@@H](C(=O)NC3CCCCC3)CC[C@H]2C)n1 [GSK2334470] | None of these compounds affected the dimerization | –
12 | – | – | 6.2 °C | 9.0 °C | 8% | 7% | 8% | –2.18 | > 10000 nM | O=P(O)(O)O[C@H]1[C@H](OP(=O)(O)O)[C@@H](OP(=O)(O)O)[C@H](OP(=O)(O)O)[C@@H](OP(=O)(O)O)[C@H]1OP(=O)(O)O [IP6, inositol hexakisphosphate, reference compound] | – | IC50 (nM), displacement of His-PDK1_1-556 interaction with GST-PDK1_360-556 ([1]; absence of PIFtide): Does not reach complete displacement; also recorded: no displacement; IC50 (nM), displacement of His-PDK1_1-556 interaction with GST-PDK1_360-556 with PIFtide ([1]; with PIFtide): Does not reach complete displacement; IC50 (nM), PDK1 direct (PDK1; 10-point titration): inactive
13 | 458 nM | 159 nM | 2.9 °C | 6.0 °C | 9% | 11% | ≤ 10% | – | – | NCCO[C@H]1[C@@H](OP(=O)(O)O)[C@H](OP(=O)(O)O)[C@@H](OP(=O)(O)O)[C@H](OP(=O)(O)O)[C@H]1OP(=O)(O)O [AMR1474, 2-O-(2-aminoethyl)-IP5] | – | effect on PDK1-PIFtide interaction (GST-PDK1_1-556 [2]): virtually no effect; displacement of PIP3 from GST-PDK1_360-556 (GST-PDK1_360-556): lacked or showed reduced ability to displace; displacement of PIP3 from GST-PDK1_1-556 (GST-PDK1_1-556 [3]): lacked or showed reduced ability to displace
